Test results taken from PMC6978363, “Chaperone mediated detection of small molecule target binding in cells” (Nature Communications, 2020).

Columns and labels:
Test in all cases: biochemical
AKT2 = AKT2 (Homo sapiens, UniProt P31751); details: read-out: % Inhibition (at 10mM)
AKT3 = AKT3 (Homo sapiens, UniProt Q9Y243); details: read-out: % Inhibition (at 10mM)
Aurora_C = molecular target: T1, Aurora_C (Homo sapiens, UniProt Q9UQB9); details: read-out: % Inhibition (at 10mM)
T1 construct: gene AURKC

Blk = Blk (Homo sapiens, UniProt P51451); details: read-out: % Inhibition (at 10mM)
Brk = molecular target: T2, Brk (Homo sapiens, UniProt Q13882); details: read-out: % Inhibition (at 10mM)
T2 construct: gene PTK6

CK1_gamma1 = molecular target: T3, CK1_gamma1 (Homo sapiens, UniProt Q9HCP0); details: read-out: % Inhibition (at 10mM)
T3 construct: gene CSNK1G1

CK1_gamma2 = molecular target: T4, CK1_gamma2 (Homo sapiens, UniProt P78368); details: read-out: % Inhibition (at 10mM)
T4 construct: gene CSNK1G2

CK1_gamma3 = molecular target: T5, CK1_gamma3 (Homo sapiens, UniProt Q9Y6M4); details: read-out: % Inhibition (at 10mM)
T5 construct: gene CSNK1G3

CLK1 = CLK1 (Homo sapiens, UniProt P49759); details: read-out: % Inhibition (at 10mM)
CamKII_alpha = molecular target: T6, CamKII_alpha (Homo sapiens, UniProt Q9UQM7); details: read-out: % Inhibition (at 10mM)
T6 construct: gene CAMK2A

DNA-PK = molecular target: T7, DNA-PK (Homo sapiens, UniProt P78527); details: read-out: % Inhibition (at 10mM)
T7 construct: gene PRKDC

DYRK3 = DYRK3 (Homo sapiens, UniProt O43781); details: read-out: % Inhibition (at 10mM)
ERK5 = molecular target: T8, ERK5 (Homo sapiens, UniProt Q13164); details: read-out: % Inhibition (at 10mM)
T8 construct: gene MAPK7

EphB1 = EphB1 (Homo sapiens, UniProt P54762); details: read-out: % Inhibition (at 10mM)
FGFR1 = FGFR1 (Homo sapiens, UniProt P11362); details: read-out: % Inhibition (at 10mM)
Flt3 = Flt3 (Homo sapiens, UniProt P36888); details: read-out: % Inhibition (at 10mM)
Fyn = Fyn (Homo sapiens, UniProt P06241); details: read-out: % Inhibition (at 10mM)
HIPK4 = HIPK4 (Homo sapiens, UniProt Q8NE63); details: read-out: % Inhibition (at 10mM)
IKK_epsilon = molecular target: T9, IKK_epsilon (Homo sapiens, UniProt Q14164); details: read-out: % Inhibition (at 10mM)
T9 construct: gene IKBKE

MAP4K4 = MAP4K4 (Homo sapiens, UniProt O95819); details: read-out: % Inhibition (at 10mM)
MSK1 = molecular target: T10, MSK1 (Homo sapiens, UniProt O75582); details: read-out: % Inhibition (at 10mM)
T10 construct: gene RPS6KA5

NEK6 = NEK6 (Homo sapiens, UniProt Q9HC98); details: read-out: % Inhibition (at 10mM)
NEK9 = NEK9 (Homo sapiens, UniProt Q8TD19); details: read-out: % Inhibition (at 10mM)
NIM1 = molecular target: T11, NIM1 (Homo sapiens, UniProt Q8IY84); details: read-out: % Inhibition (at 10mM)
T11 construct: gene NIM1K

PAK3 = PAK3 (Homo sapiens, UniProt O75914); details: read-out: % Inhibition (at 10mM)
PKD2 = molecular target: T12, PKD2 (Homo sapiens, UniProt Q9BZL6); details: read-out: % Inhibition (at 10mM)
T12 construct: gene PRKD2

PRKAA1 = PRKAA1 (Homo sapiens, UniProt Q13131); details: read-out: % Inhibition (at 10mM)
ROCK2 = ROCK2 (Homo sapiens, UniProt O75116); details: read-out: % Inhibition (at 10mM)
Src_N1 = molecular target: T13, Src_N1 (Homo sapiens, UniProt P12931); details: read-out: % Inhibition (at 10mM)
T13 construct: gene SRC; isoform N1

TAO2 = molecular target: T14, TAO2 (Homo sapiens, UniProt Q9UL54); details: read-out: % Inhibition (at 10mM)
T14 construct: gene TAOK2

TYK2 = TYK2 (Homo sapiens, UniProt P29597); details: read-out: % Inhibition (at 10mM)
TrkA = molecular target: T15, TrkA (Homo sapiens, UniProt P04629); details: read-out: % Inhibition (at 10mM)
T15 construct: gene NTRK1

TrkB = molecular target: T16, TrkB (Homo sapiens, UniProt Q16620); details: read-out: % Inhibition (at 10mM)
T16 construct: gene NTRK2

p38_alpha(direct) = molecular target: T17, p38_alpha(direct) (Homo sapiens, UniProt Q16539); details: read-out: % Inhibition (at 10mM)
T17 construct: gene MAPK14; direct

p70S6Kb = molecular target: T18, p70S6Kb (Homo sapiens, UniProt Q9UBS0); details: read-out: % Inhibition (at 10mM)
T18 construct: gene RPS6KB2

DYRK1B = DYRK1B (Homo sapiens, UniProt Q9Y463)
Source text: (§1) The detection of EGFR (another HER family member) was ambiguous because the peptides used to detect it were also present in ERBB2.

LTK = LTK (Homo sapiens, UniProt P29376)
Source text: as §1

T15 sequence (P04629 whole entry): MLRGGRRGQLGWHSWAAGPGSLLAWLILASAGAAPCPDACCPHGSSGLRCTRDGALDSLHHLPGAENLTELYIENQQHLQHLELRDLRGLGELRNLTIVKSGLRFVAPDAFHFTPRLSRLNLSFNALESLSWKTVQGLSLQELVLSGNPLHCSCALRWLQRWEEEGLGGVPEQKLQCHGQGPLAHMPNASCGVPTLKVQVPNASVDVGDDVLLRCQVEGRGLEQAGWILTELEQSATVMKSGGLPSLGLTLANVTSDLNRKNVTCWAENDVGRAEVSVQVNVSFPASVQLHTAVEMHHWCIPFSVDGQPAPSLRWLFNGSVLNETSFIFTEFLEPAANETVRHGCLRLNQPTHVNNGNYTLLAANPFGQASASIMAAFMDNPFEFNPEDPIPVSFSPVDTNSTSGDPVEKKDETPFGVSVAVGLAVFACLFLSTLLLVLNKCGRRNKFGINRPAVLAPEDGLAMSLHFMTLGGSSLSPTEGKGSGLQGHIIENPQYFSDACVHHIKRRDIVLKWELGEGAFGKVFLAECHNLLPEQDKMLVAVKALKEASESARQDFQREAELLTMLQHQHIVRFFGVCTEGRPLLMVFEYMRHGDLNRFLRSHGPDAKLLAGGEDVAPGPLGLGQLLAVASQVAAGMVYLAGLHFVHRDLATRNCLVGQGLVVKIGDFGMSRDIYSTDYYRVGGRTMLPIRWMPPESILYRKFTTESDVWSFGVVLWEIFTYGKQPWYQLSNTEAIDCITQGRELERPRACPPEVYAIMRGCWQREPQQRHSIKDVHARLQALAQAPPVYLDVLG
T1 sequence (Q9UQB9 whole entry): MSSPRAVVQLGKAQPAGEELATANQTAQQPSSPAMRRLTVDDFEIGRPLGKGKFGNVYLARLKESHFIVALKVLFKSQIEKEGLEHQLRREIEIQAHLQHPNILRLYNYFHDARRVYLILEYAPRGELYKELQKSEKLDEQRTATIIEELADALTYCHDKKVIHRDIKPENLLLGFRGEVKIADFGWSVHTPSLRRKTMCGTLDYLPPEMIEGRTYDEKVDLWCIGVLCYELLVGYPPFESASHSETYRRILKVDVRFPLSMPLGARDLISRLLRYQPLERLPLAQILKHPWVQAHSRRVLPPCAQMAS
T17 sequence (Q16539 whole entry): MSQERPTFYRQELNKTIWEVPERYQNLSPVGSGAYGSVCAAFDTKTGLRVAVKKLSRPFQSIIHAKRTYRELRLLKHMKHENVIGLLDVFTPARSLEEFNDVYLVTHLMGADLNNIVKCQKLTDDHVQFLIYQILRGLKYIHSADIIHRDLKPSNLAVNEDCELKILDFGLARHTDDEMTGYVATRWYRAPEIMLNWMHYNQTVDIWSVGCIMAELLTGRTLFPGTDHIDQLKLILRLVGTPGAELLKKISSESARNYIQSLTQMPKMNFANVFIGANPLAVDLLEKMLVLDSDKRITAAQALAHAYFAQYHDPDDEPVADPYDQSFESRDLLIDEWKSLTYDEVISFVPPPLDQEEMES
HIPK4, sequence (Q8NE63 whole entry): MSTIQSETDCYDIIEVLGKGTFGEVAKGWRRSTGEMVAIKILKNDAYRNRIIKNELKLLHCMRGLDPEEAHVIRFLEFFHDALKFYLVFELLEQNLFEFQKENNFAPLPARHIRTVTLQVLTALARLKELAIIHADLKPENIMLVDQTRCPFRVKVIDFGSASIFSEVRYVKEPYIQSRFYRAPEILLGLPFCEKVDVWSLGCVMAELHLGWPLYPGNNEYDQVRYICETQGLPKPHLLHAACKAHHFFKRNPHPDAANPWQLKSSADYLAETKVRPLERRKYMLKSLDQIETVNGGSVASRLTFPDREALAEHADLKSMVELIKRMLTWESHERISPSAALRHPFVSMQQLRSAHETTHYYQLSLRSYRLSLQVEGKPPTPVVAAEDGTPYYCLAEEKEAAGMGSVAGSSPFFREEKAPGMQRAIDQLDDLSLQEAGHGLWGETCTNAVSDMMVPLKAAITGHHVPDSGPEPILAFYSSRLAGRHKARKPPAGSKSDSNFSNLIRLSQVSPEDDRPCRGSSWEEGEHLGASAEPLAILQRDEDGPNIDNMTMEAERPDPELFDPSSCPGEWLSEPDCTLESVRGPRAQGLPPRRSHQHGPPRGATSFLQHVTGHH
PRKAA1, sequence (Q13131 whole entry): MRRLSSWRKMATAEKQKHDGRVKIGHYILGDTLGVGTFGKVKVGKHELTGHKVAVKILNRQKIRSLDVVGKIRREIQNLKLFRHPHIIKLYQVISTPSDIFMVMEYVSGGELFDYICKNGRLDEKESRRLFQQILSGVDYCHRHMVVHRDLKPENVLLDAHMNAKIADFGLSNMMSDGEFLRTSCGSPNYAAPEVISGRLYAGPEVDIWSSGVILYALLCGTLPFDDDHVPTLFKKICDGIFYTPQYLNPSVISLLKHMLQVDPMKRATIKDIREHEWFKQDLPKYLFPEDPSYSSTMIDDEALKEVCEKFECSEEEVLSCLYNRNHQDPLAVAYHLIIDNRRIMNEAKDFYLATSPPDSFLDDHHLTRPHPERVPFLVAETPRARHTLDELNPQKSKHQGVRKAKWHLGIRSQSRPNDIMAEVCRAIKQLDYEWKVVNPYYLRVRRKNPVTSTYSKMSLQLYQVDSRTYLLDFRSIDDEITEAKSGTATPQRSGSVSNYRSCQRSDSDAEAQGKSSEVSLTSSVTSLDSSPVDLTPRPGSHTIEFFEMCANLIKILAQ
PRKAA1, sequence (P54619 whole entry partner): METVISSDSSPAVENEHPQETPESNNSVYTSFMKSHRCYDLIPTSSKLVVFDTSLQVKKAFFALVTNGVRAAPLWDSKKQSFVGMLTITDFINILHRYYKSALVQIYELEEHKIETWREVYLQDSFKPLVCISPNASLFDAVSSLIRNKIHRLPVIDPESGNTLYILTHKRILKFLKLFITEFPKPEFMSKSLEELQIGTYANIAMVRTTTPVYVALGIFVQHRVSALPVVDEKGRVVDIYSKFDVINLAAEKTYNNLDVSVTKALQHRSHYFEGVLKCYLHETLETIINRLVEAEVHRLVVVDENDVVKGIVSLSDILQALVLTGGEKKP
PRKAA1, sequence (Q9Y478 whole entry partner): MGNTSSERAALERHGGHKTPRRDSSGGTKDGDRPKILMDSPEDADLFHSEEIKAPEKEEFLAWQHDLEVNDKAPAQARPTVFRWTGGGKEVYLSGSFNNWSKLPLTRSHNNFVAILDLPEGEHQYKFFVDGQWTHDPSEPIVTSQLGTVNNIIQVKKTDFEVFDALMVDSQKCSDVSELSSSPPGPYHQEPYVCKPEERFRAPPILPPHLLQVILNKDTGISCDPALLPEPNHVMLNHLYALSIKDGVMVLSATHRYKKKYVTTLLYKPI
T10 sequence (O75582 whole entry): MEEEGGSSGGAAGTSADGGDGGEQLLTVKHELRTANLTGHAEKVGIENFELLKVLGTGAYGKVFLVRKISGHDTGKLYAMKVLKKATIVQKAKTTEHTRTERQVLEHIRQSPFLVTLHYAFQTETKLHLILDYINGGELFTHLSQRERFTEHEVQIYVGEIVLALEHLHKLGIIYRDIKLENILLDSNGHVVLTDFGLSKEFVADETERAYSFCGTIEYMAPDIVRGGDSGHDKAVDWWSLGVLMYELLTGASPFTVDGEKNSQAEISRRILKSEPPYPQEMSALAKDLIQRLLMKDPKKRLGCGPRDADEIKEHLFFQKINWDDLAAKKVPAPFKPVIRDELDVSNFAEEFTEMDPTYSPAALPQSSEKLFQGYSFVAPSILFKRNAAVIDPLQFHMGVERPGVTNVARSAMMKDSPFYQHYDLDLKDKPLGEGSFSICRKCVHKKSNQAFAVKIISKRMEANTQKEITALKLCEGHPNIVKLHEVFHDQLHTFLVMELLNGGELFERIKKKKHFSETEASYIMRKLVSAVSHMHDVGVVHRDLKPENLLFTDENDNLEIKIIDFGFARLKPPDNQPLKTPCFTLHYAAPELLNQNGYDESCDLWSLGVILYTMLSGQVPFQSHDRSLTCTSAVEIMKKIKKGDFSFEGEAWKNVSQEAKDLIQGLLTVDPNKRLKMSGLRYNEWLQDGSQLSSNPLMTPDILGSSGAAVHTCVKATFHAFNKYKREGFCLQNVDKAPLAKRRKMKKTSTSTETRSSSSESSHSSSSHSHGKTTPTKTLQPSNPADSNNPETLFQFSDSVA
DYRK3, sequence (O43781 whole entry): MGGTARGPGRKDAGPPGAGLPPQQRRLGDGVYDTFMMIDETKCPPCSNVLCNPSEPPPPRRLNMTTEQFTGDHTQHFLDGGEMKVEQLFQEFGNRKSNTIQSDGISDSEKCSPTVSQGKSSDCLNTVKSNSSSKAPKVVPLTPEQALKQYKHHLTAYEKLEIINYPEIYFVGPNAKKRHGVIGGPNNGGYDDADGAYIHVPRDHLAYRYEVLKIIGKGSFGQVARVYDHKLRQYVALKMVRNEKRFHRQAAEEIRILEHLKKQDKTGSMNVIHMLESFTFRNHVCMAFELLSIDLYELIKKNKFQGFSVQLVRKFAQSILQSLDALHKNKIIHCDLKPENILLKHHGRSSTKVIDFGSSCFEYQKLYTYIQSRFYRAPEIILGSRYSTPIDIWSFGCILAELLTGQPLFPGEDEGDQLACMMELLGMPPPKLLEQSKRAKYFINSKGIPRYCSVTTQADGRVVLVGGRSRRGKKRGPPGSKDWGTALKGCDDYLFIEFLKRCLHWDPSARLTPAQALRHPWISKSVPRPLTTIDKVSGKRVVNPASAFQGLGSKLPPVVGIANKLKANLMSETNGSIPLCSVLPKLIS
NEK6, sequence (Q9HC98 whole entry): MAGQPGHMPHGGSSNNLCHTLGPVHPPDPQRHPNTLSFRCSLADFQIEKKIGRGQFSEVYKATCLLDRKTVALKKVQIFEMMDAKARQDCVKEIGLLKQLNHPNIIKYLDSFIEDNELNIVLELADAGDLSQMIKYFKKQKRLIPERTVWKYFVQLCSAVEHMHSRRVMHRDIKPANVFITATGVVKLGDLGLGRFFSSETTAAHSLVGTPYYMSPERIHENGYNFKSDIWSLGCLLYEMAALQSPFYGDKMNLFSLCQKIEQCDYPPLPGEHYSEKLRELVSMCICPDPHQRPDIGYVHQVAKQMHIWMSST

**Q.** `CC(C)(O)CC(=O)NCCn1ccc2ncnc(Nc3ccc(Oc4cccc(C(F)(F)F)c4)c(Cl)c3)c21` [TAK-285] was tested. Which inhibition (AKT2) did it give?
**A.** The inhibition was 5.5%.

**Q.** And the inhibition (AKT3)?
**A.** Its inhibition is 5%.

**Q.** And the inhibition (Aurora_C)?
**A.** The inhibition was 22.5%.

**Q.** What about the inhibition (Blk) of the same molecule?
**A.** The inhibition was 25%.

**Q.** And the inhibition (Brk)?
**A.** The inhibition was 65%.

**Q.** What about the inhibition (CK1_gamma1) of the same molecule?
**A.** The inhibition was 2.5%.

**Q.** And the inhibition (CK1_gamma2)?
**A.** The inhibition was -5%.

**Q.** What about the inhibition (CK1_gamma3) of the same molecule?
**A.** Its inhibition is 2.5%.

**Q.** What about the inhibition (CLK1) of the same molecule?
**A.** The inhibition was 10.5%.

**Q.** And the inhibition (CamKII_alpha)?
**A.** Its inhibition is 2.5%.

**Q.** What about the inhibition (DNA-PK) of the same molecule?
**A.** The inhibition was 11.5%.

**Q.** What about the inhibition (DYRK3) of the same molecule?
**A.** Its inhibition is -0.5%.

**Q.** What about the inhibition (ERK5) of the same molecule?
**A.** The inhibition was 0.5%.

**Q.** And the inhibition (EphB1)?
**A.** Its inhibition is -6%.

**Q.** And the inhibition (FGFR1)?
**A.** Its inhibition is 4%.

**Q.** And the inhibition (Flt3)?
**A.** Its inhibition is 27%.

**Q.** And the inhibition (Fyn)?
**A.** Its inhibition is 53%.

**Q.** What about the inhibition (HIPK4) of the same molecule?
**A.** The inhibition was 5.5%.

**Q.** And the inhibition (IKK_epsilon)?
**A.** The inhibition was 5.5%.

**Q.** What about the inhibition (MAP4K4) of the same molecule?
**A.** The inhibition was -0.5%.

**Q.** And the inhibition (MSK1)?
**A.** The inhibition was 2.5%.

**Q.** And the inhibition (NEK6)?
**A.** Its inhibition is 6%.

**Q.** And the inhibition (NEK9)?
**A.** The inhibition was 0%.

**Q.** And the inhibition (NIM1)?
**A.** The inhibition was 8.5%.

**Q.** What about the inhibition (PAK3) of the same molecule?
**A.** Its inhibition is 12%.

**Q.** And the inhibition (PKD2)?
**A.** The inhibition was 80.5%.

**Q.** And the inhibition (PRKAA1)?
**A.** Its inhibition is 6%.

**Q.** What about the inhibition (ROCK2) of the same molecule?
**A.** The inhibition was -0.5%.

**Q.** And the inhibition (Src_N1)?
**A.** The inhibition was 23%.

**Q.** And the inhibition (TAO2)?
**A.** The inhibition was -5%.

**Q.** And the inhibition (TYK2)?
**A.** Its inhibition is 4.5%.

**Q.** And the inhibition (TrkA)?
**A.** Its inhibition is 29%.

**Q.** And the inhibition (TrkB)?
**A.** Its inhibition is 4.5%.

**Q.** What about the inhibition (p38_alpha(direct)) of the same molecule?
**A.** The inhibition was 4%.

**Q.** And the inhibition (p70S6Kb)?
**A.** Its inhibition is 2.5%.

**Q.** And the inhibition at 10 µM (DYRK1B)?
**A.** Its inhibition at 10 µM is 3%.

**Q.** And the inhibition at 10 µM (LTK)?
**A.** Its inhibition at 10 µM is 0.5%.
